Results as given in PubChem BioAssay AID180 (DTP/NCI, 2004).
Where “and” joins values, the source holds several entries; their conditions need not be identical. Identical values can stand only once.

Test system: BDF1 mice, Adenocarcinoma 755 s.c., tumor weight T/C
Assay: NCI In Vivo Anticancer Drug Screen. Data for tumor model Adenocarcinoma 755 (subcutaneous) in B6D2F1 (BDF1) mice
Details: endpoint: mean tumor weight, higher = larger tumour
Outline: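 Readout: T/C, i.e. treated-group measurement over vehicle-control measurement. Endpoint is survival or tumor size in tumor-bearing mice given compound.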

[1] = dose: 75.0 mg/kg/injection, schedule: Q01DX011 (ip), vehicle: methylcellulose (MC)
[2] = dose: 2.5 mg/kg/injection, schedule: Q01DX011 (ip), vehicle: carboxymethylcellulose (CMC)
[3] = dose: 30.0 mg/kg/injection, schedule: Q01DX011 (ip), vehicle: carboxymethylcellulose (CMC)
[4] = dose: 60.0 mg/kg/injection, schedule: Q01DX011 (ip), vehicle: carboxymethylcellulose (CMC)
[5] = dose: 120.0 mg/kg/injection, schedule: Q01DX011 (ip), vehicle: carboxymethylcellulose (CMC)
[6] = dose: 240.0 mg/kg/injection, schedule: Q01DX011 (ip), vehicle: carboxymethylcellulose (CMC)

With `C[C@]12C=CC(=O)C=C1CC[C@@H]1[C@@H]2CC[C@]2(C)OC(=O)CC[C@@H]12` the T/C (dose: 125.0 mg/kg/injection, schedule: Q01DX011 (sc), vehicle: steriod suspending solution) was 80 % of control, the T/C (dose: 250.0 mg/kg/injection, schedule: Q01DX011 (sc), vehicle: steriod suspending solution) was 77 % of control and the T/C (dose: 500.0 mg/kg/injection, schedule: Q01DX011 (sc), vehicle: steriod suspending solution) was 109 % of control. The T/C (dose: 1000.0 mg/kg/injection, schedule: Q01DX011 (sc), vehicle: steriod suspending solution) was 75 % of control.

With `Brc1ncnc2c1ncn2C1CCCS1` (centres undefined) the T/C (dose: 25.0 mg/kg/injection, schedule: Q01DX011 (ip), vehicle: methylcellulose (MC)) was 75 % of control, the T/C [1] was 66 % of control and the T/C (dose: 225.0 mg/kg/injection, schedule: Q01DX011 (ip), vehicle: methylcellulose (MC)) was 86 % of control.

For `Cc1ccc2ccccc2c1CSc1ncnc2nc[nH]c12`, the T/C (dose: 10.0 mg/kg/injection, schedule: Q01DX011 (ip), vehicle: methylcellulose (MC)) was 38 % of control, the T/C (dose: 20.0 mg/kg/injection, schedule: Q01DX011 (ip), vehicle: methylcellulose (MC)) was 40 % of control and the T/C (dose: 40.0 mg/kg/injection, schedule: Q01DX011 (ip), vehicle: methylcellulose (MC)) was 11 % of control. For the same molecule, the T/C (dose: 80.0 mg/kg/injection, schedule: Q01DX011 (ip), vehicle: methylcellulose (MC)) was 9 % of control.

In the case of `N[C@@H](Cc1ccc(N(CCCl)CCCl)cc1)C(=O)O`, the T/C (dose: 0.31 mg/kg/injection, schedule: Q01DX011 (ip), vehicle: carboxymethylcellulose (CMC)) is reported as 66 % of control, the T/C (dose: 0.62 mg/kg/injection, schedule: Q01DX011 (ip), vehicle: carboxymethylcellulose (CMC)) is reported as 101 % of control and the T/C (dose: 1.25 mg/kg/injection, schedule: Q01DX011 (ip), vehicle: carboxymethylcellulose (CMC)) is reported as 59 % of control. The T/C [2] was 29 % of control.

In the case of `CN(C)c1nc(N)nc(Nc2ccc(Br)cc2)c1N=O`, the T/C (dose: 12.5 mg/kg/injection, schedule: Q01DX011 (ip), vehicle: carboxymethylcellulose (CMC)) is reported as 40 % of control and the T/C (dose: 25.0 mg/kg/injection, schedule: Q01DX011 (ip), vehicle: carboxymethylcellulose (CMC)) is reported as 51 % of control.

`Cn1c(=O)c2c(nc(CN3CCOCC3)n2C)n(C)c1=O` was tested, and the T/C (dose: 30.0 mg/kg/injection, schedule: Q01DX011 (ip), vehicle: methylcellulose (MC)) was 122 % of control, the T/C (dose: 60.0 mg/kg/injection, schedule: Q01DX011 (ip), vehicle: methylcellulose (MC)) was 81 % of control and the T/C (dose: 120.0 mg/kg/injection, schedule: Q01DX011 (ip), vehicle: methylcellulose (MC)) was 80 % of control. For the same molecule, the T/C (dose: 240.0 mg/kg/injection, schedule: Q01DX011 (ip), vehicle: methylcellulose (MC)) was 92 % of control.

For `Cn1c(=N)nc(SCc2ccccc2Cl)c2[nH]cnc21`, the T/C [3] was 88 % of control, the T/C [4] was 118 % of control and the T/C [5] was 88 % of control. The T/C [6] was 16 % of control.

With `SCc1ccccn1` the T/C (dose: 37.8 mg/kg/injection, schedule: Q01DX011 (ip), vehicle: carboxymethylcellulose (CMC)) was 109 % of control and the T/C (dose: 300.0 mg/kg/injection, schedule: Q01DX011 (ip), vehicle: carboxymethylcellulose (CMC)) was 97 % of control.

In the case of `C/C=C1\CN(C)[C@H]2Cc3c([nH]c4ccccc34)[C@@H](c3cc4[nH]c5c(c4cc3OC)CCN3C[C@H]4C[C@H](CC)[C@H]3[C@@]5(C(=O)OC)C4)C[C@H]1C2C(=O)OC` (some centres undefined), the T/C (dose: 30.0 mg/kg/injection, schedule: Q01DX011 (ip), vehicle: water) is reported as 58 % of control, the T/C (dose: 35.0 mg/kg/injection, schedule: Q01DX006 (ip), vehicle: water) is reported as 57 % of control and the T/C (dose: 45.0 mg/kg/injection, schedule: Q01DX011 (ip), vehicle: water) is reported as 41 % of control. The T/C (dose: 50.0 mg/kg/injection, schedule: Q01DX006 (ip), vehicle: water) was 61 % of control and 69 % of control, the T/C (dose: 70.0 mg/kg/injection, schedule: Q01DX006 (ip), vehicle: water) was 51 % of control and the T/C (dose: 80.0 mg/kg/injection, schedule: Q01DX006 (ip), vehicle: water) was 54 % of control.

In the case of `CC(=O)OCC1OC(n2cnc3c(=O)[nH]c(N)nc32)C(OC(C)=O)C1OC(C)=O` (centres undefined), the T/C [3] is reported as 59 % of control, the T/C [4] is reported as 49 % of control and the T/C [5] is reported as 57 % of control. The T/C [6] was 51 % of control, the T/C (dose: 400.0 mg/kg/injection, schedule: Q01DX011 (ip), vehicle: carboxymethylcellulose (CMC)) was 87 % of control and the T/C (dose: 600.0 mg/kg/injection, schedule: Q01DX011 (ip), vehicle: carboxymethylcellulose (CMC)) was 83 % of control.

For `CCC(C)Cn1cnc2c(=O)[nH]c(N)nc21` (centres undefined), the T/C (dose: 37.5 mg/kg/injection, schedule: Q01DX011 (ip), vehicle: methylcellulose (MC)) was 75 % of control, the T/C [1] was 49 % of control and the T/C (dose: 150.0 mg/kg/injection, schedule: Q01DX011 (ip), vehicle: methylcellulose (MC)) was 67 % of control.

For `Nc1ncnc2[nH]ncc12`, the T/C (dose: 0.94 mg/kg/injection, schedule: Q01DX011 (ip), vehicle: carboxymethylcellulose (CMC)) was 78 % of control, the T/C (dose: 1.1 mg/kg/injection, schedule: Q01DX011 (ip), vehicle: carboxymethylcellulose (CMC)) was 69 % of control and the T/C (dose: 1.41 mg/kg/injection, schedule: Q01DX011 (ip), vehicle: carboxymethylcellulose (CMC)) was 73 % of control. The T/C (dose: 1.5 mg/kg/injection, schedule: Q01DX011 (ip), vehicle: carboxymethylcellulose (CMC)) was 67 % of control, the T/C (dose: 1.88 mg/kg/injection, schedule: Q01DX011 (ip), vehicle: carboxymethylcellulose (CMC)) was 54 % of control and 61 % of control and the T/C [2] was 32 % of control. For the same molecule, the T/C (dose: 3.1 mg/kg/injection, schedule: Q01DX011 (ip), vehicle: carboxymethylcellulose (CMC)) was 74 % of control, the T/C (dose: 3.75 mg/kg/injection, schedule: Q01DX011 (ip), vehicle: carboxymethylcellulose (CMC)) was 31 % of control and 36 % of control and the T/C (dose: 4.52 mg/kg/injection, schedule: Q01DX011 (ip), vehicle: carboxymethylcellulose (CMC)) was 108 % of control. The T/C (dose: 5.65 mg/kg/injection, schedule: Q01DX011 (ip), vehicle: carboxymethylcellulose (CMC)) was 50 % of control and 63 % of control, the T/C (dose: 6.2 mg/kg/injection, schedule: Q01DX011 (ip), vehicle: carboxymethylcellulose (CMC)) was 6 % of control and the T/C (dose: 7.5 mg/kg/injection, schedule: Q01DX011 (ip), vehicle: carboxymethylcellulose (CMC)) was 5 % of control and 6 % of control. For the same molecule, the T/C (dose: 7.53 mg/kg/injection, schedule: Q01DX011 (ip), vehicle: carboxymethylcellulose (CMC)) was 36 % of control and the T/C (dose: 11.3 mg/kg/injection, schedule: Q01DX011 (ip), vehicle: carboxymethylcellulose (CMC)) was 31 % of control.

For `C=CC(=O)NCO`, the T/C (dose: 100.0 mg/kg/injection, schedule: Q01DX011 (ip), vehicle: other) was 86 % of control, the T/C (dose: 150.0 mg/kg/injection, schedule: Q01DX011 (ip), vehicle: other) was 89 % of control and the T/C (dose: 200.0 mg/kg/injection, schedule: Q01DX011 (ip), vehicle: other) was 88 % of control.
